Results from patent publication US20250170114A1, “METHODS OF TREATMENT USING T-TYPE CALCIUM CHANNEL MODULATORS” (Praxis Precision Medicines, Inc., priority 2022, published 2025).

Test system: participants with ET
Experiment: Phase 2 trial: treatment-emergent adverse events (TEAEs)
Type: in vivo
From the text: Part A of the clinical trial was open-label and assessed the safety and tolerability of the study drug, as well as the overall magnitude and pattern of change in ET severity.
Part B of the clinical trial consisted of both an open-label titration phase and a randomized, double-blind, placebo-controlled withdrawal phase. Part B assessed the safety and tolerability of the study drug, as well as the overall magnitude and pattern of change in ET severity and the duration of that effect. […] In the randomized, double-blind, placebo-controlled withdrawal phase, participants were either maintained on their final open-label dose or switched to placebo for an additional 14 days (Days 43 to 56).
Key safety measures included clinical laboratory evaluations, 12-lead ECG, C-SSRS, and vital signs. Key efficacy assessments included the TETRAS Performance subscale, TETRAS Upper Limb using accelerometry, CGI, and PGI-C. Blood samples were obtained for the determination of study drug plasma concentrations using a validated bioanalytical method and may also be used for method development and/or metabolite characterization.
On Day 1, participants received a 20 mg dose of study drug on an empty stomach (at least 1 hour before breakfast). Participants remained in a clinical setting under medical observation for approximately 6 hours. TETRAS Performance assessments were performed before dosing and 6 hours (±2) post-dose. For dosing on Day 2 through Day 41, participants were instructed to dose QAM at least 1 hour before breakfast at home. Participants continued taking study drug 20 mg QAM at home through Day 3. […] On Day 4, participants escalated to 40 mg QAM through Day 7, when they returned to the clinic for safety assessments and efficacy testing. On Day 8, participants escalated to 60 mg QAM through Day 14. […] On Day 15, participants escalated to 80 mg QAM through Day 21, when they returned to the clinic for safety assessments and efficacy testing. On Day 22, participants escalated to 100 mg QAM through Day 28. […] On Day 29, participants escalated to 120 mg QAM through Day 42, when they returned to the clinic for safety assessments and efficacy testing. The dose on Day 42 was taken in the clinic. On Day 35, participants received a telephone call from site staff to inquire about AEs and concomitant medications. On Day 41, participants completed a TETRAS Performance Upper Limb assessment via a telehealth visit. […] Participants could only change to a lower dose level once, and no dose changes were allowed to occur after Day 36.
In both phases, key safety measures included clinical laboratory evaluations, 12-lead ECG, C-SSRS, and vital signs. Key efficacy assessments included the TETRAS Performance subscale, TETRAS Upper Limb using accelerometry, CGI, PGI-C, TETRAS ADL Subscale, QUEST, BDI-II, and BAI. Blood samples were obtained for the determination of study drug and metabolite plasma concentrations.

[1] = Part A, Overall, N = 7, listed as study drug
[2] = Part B - RWD, study drug group, N = 6

CC(C)(C)NC(=O)CN1CCC(CNC(=O)c2cc(F)cc(Cl)c2)CC1.Cl [Study drug]
Drug-related TEAE dizziness (Part A): 3 participants | participants experiencing TEAEs considered related to study drug (Part A): 57.1% | participants who experienced at least 1 TEAE (Part A): 85.7% | Any TEAE (Part A (overall), N = 7): 6 (85.7) n (%) | Any TEAE leading to study drug withdrawal (Part A (overall), N = 7): 1 (14.3) n (%) | Any TEAE related to disease under study (Part A (overall), N = 7): 1 (14.3) n (%) | Any TEAE related to study drug (Part A (overall), N = 7): 4 (57.1) n (%) | Any TEAE related to study procedure (Part A (overall), N = 7): 0 n (%) | Any fatal SAEs (Part A (overall), N = 7): 0 n (%) | Any serious adverse events (Part A (overall), N = 7): 0 n (%) | TEAE Mild (Part A (overall), N = 7): 6 (85.7) n (%) | TEAE Moderate (Part A (overall), N = 7): 1 (14.3) n (%) | TEAE Severe (Part A (overall), N = 7): 0 n (%) | participants who experienced AEs leading to study drug withdrawal (Part A and open-label titration phase of Part B together): 7 participants | Any TEAE (Part A, 20 mg, N = 7): 6 (85.7) n (%) | TEAE PT Dizziness (Part A, 20 mg, N = 7): 4 (57.1) n (%) | TEAE PT Headache (Part A, 20 mg, N = 7): 3 (42.9) n (%) | TEAE SOC Nervous System Disorders (Part A, 20 mg, N = 7): 6 (85.7) n (%) | TEAE SOC Psychiatric Disorders (Part A, 20 mg, N = 7): 2 (28.6) n (%) | Any TEAE (Part A, 40 mg, N = 6): 2 (33.3) n (%) | TEAE PT Dizziness (Part A, 40 mg, N = 6): 0 n (%) | TEAE PT Headache (Part A, 40 mg, N = 6): 1 (16.7) n (%) | TEAE SOC Nervous System Disorders (Part A, 40 mg, N = 6): 1 (16.7) n (%) | TEAE SOC Psychiatric Disorders (Part A, 40 mg, N = 6): 0 n (%) | Any TEAE (Part A, Overall, N = 7): 6 (85.7) n (%) | TEAE PT Dizziness (Part A, Overall, N = 7): 4 (57.1) n (%) | TEAE PT Headache (Part A, Overall, N = 7): 3 (42.9) n (%) | TEAE SOC Nervous System Disorders (Part A, Overall, N = 7): 6 (85.6) n (%) | TEAE SOC Psychiatric Disorders (Part A, Overall, N = 7): 2 (28.6) n (%) | Any TEAE leading to study drug withdrawal [1]: 1 n (%) | TEAE PT Dizziness [1]: 4 n (%) | TEAE PT Headache [1]: 3 n (%) | Any TEAE (Part B - OLT, N = 17): 15 n (%) | Any TEAE leading to study drug withdrawal (Part B - OLT, N = 17): 6 n (%) | Any TEAE related to disease under study (Part B - OLT, N = 17): 1 n (%) | Any TEAE related to study drug (Part B - OLT, N = 17): 12 n (%) | Any TEAE related to study procedure (Part B - OLT, N = 17): 0 n (%) | Any fatal SAEs (Part B - OLT, N = 17): 0 n (%) | Any serious adverse events (Part B - OLT, N = 17): 1 n (%) | TEAE Mild (Part B - OLT, N = 17): 13 n (%) | TEAE Moderate (Part B - OLT, N = 17): 7 n (%) | TEAE Severe (Part B - OLT, N = 17): 0 n (%) | Any TEAE [2]: 1 (16.7) n (%) | Any TEAE leading to study drug withdrawal [2]: 0 n (%) | Any TEAE related to disease under study [2]: 0 n (%) | Any TEAE related to study drug [2]: 0 n (%) | Any TEAE related to study procedure [2]: 0 n (%) | Any fatal SAEs [2]: 0 n (%) | Any serious adverse events [2]: 0 n (%) | TEAE Mild [2]: 1 (16.7) n (%) | TEAE Moderate [2]: 1 (16.7) n (%) | TEAE Severe [2]: 0 n (%) | Any TEAE (Part B - RWD, study drug group, N = 6, listed as study drug): 1 n (%) | Any TEAE (Part B, 20 mg, N = 17): 10 n (%) | PT Cognitive disorder (Part B, 20 mg, N = 17): 2 n (%) | PT Constipation (Part B, 20 mg, N = 17): 1 n (%) | PT Dizziness (Part B, 20 mg, N = 17): 4 n (%) | PT Fatigue (Part B, 20 mg, N = 17): 2 n (%) | PT Insomnia (Part B, 20 mg, N = 17): 1 n (%) | SOC Gastrointestinal Disorders (Part B, 20 mg, N = 17): 3 n (%) | SOC General Disorders and Administration Site Conditions (Part B, 20 mg, N = 17): 2 n (%) | SOC Musculoskeletal and Connective Tissue Disorders (Part B, 20 mg, N = 17): 1 n (%) | SOC Nervous System Disorders (Part B, 20 mg, N = 17): 8 n (%) | SOC Psychiatric Disorders (Part B, 20 mg, N = 17): 1 n (%) | SOC Vascular Disorders (Part B, 20 mg, N = 17): 0 n (%) | Any TEAE (Part B, 40 mg, N = 15): 8 n (%) | PT Cognitive disorder (Part B, 40 mg, N = 15): 1 n (%) | PT Constipation (Part B, 40 mg, N = 15): 3 n (%) | PT Dizziness (Part B, 40 mg, N = 15): 1 n (%) | PT Fatigue (Part B, 40 mg, N = 15): 1 n (%) | PT Insomnia (Part B, 40 mg, N = 15): 2 n (%) | SOC Gastrointestinal Disorders (Part B, 40 mg, N = 15): 3 n (%) | SOC General Disorders and Administration Site Conditions (Part B, 40 mg, N = 15): 2 n (%) | SOC Musculoskeletal and Connective Tissue Disorders (Part B, 40 mg, N = 15): 0 n (%)
